Experimental data published in patent publication US11565998B2, “Succinate prodrug, compositions containing the succinate prodrug and uses thereof” (ABLIVA AB, priority 2019, dated 2023).
In brackets after ≈: the same amount, converted by molar mass. Each block holds one compound with its values, some of them ahead of it.

Tests used:
[1] = Solubility in aqueous formulations in comparison to other succinate prodrugs; assay type: physicochemical; details: pH 7.4, aqueous buffer, thermodynamic from solid; PBS pH7.4
Description: Solubility of Compound 1 in aqueous formulations in comparison to other succinate prodrugs was assessed by dissolving solid material in aqueous formulations and measuring the quantity in solution by HPLC (−MS). […] In many cases the max solubility of other prodrugs was lower than 100 uM. See Table 21 for example solubility data in PBS pH7.4 for other succinate prodrugs.

[2] = Caco-2 bioavailability in vitro assay (apparent permeability); assay type: in vitro ADME; details: human; Caco-2, apical to basolateral, 0.01 mM, pH 7.4, 1 h, 37° C.
Description: The cell penetrance and potential for oral bioavailability of Compound 1 was tested using a standard caco-2 bioavailability in vitro assay (in brief, confluent Caco-2 cells (L1, A. P., 1992; Grass, G. M; et al., 1992, Volpe, D. A., et al., 2001) in a 24 well Corning Costar Transwell format were provided by In Vitro Technologies Inc. (IVT Inc., Baltimore, Md., USA). The apical chamber contained 0.15 mL Hank's balanced buffer solution (HBBS) pH 7.4, 1% DMSO, 0.1 mM Lucifer Yellow. The basal chamber contained 0.6 mL HBBS pH 7.4, 1% DMSO. Controls and tests were incubated at 37° C. in a humidified incubator, shaken at 130 rpm for 1 h. Lucifer Yellow permeates via the paracellular (between the tight junctions) route only, a high Apparent Permeability (Papp) for Lucifer Yellow indicates cellular damage during assay and all such wells were rejected. Propranolol (good passive permeation with no known transporter effects) & acebutalol (poor passive permeation attenuated by active efflux by P-glycoprotein) were used as reference compounds. Compounds were tested in a uni- and bi-directional format by applying compound to the apical or basal chamber (at 0.01 mM). Compounds in the apical or basal chambers were analysed by HPLC-MS. Results were expressed as Apparent Permeability, Papp, (nm/s), in comparison to other succinate prodrugs, including a number from WO2015/155231.

[3] = Solubility of batches of different crystallinity; assay type: physicochemical
Description: Two batches of Compound 1 were generated with different crystallinity. Batch 2 had higher crystallinity than Batch 3, which is regarded as having a higher degree of amorphous Compound 1-Batch 2 is therefore regarded as a more crystalline batch, whereas Batch 3 is regarded as a more amorphous batch. The methods used are discussed in this document.
A sample of the more amorphous Compound 1 batch 3 was added to PBS or water to a final concentration of 258 mg/mL and sonicated for 10 minutes, then shaken for 30 minutes.
A sample of the more crystalline Compound 1 batch 2 was added to HPLC-grade water (Fisher) to a final concentration of 30 mg/mL and sonicated for 10 minutes, then shaken for 30 minutes.
A sample of the more crystalline Compound 1 batch 2 was added to HPLC-grade water (Fisher) to a final concentration of 52 mg/mL and sonicated for 20 minutes, then shaken for 1 hour.
A sample of the more crystalline Compound 1 batch 2 was added to HPLC-grade water (Fisher) to a final concentration of […] and sonicated for 20 minutes, then shaken for 1.5 hours.

[4] = Stability in purified (HPLC grade) or non-purified (tap) water; assay type: physicochemical; details: 1 mg/ml, room temperature
Description: A side-by-side experiment of the stability of Compound 1 in ‘purified’ HPLC grade water (Fisher Scientific) and ‘non-purified’ tap water was set up. In brief, 1 mg/mL solutions of Compound 1 were generated in ‘purified’ HPLC grade water (Fisher Scientific) and ‘non-purified’ tap water. These were incubated at room temperature for up to 10 days. Concentration and purity of Compound 1 was assessed over time by HPLC in comparison to a standard (AUC of 8.21 RT peak at 230 nm for calculated concentration and AUC of Compound 1 peak vs impurities for purity analysis). Data presented is the average of two samples.

[5] = Kinetic solubility (turbidity at 620 nm, dissolution rate constant); assay type: physicochemical; details: dissolution in PBS at 5° C., 460 mg/ml final concentration, 3 mins
Description: Solid Compound 1 Batches s3, s12-17 (˜80 mg) were added to wells of a flat clear bottom 96 well plate. PBS at 5° C. was added to give a 460 mg/ml final concentration of 01-354 for all batches. After addition of the PBS, the plate was agitated for 10 s then immediately analysed for turbidity at 620 nm in real time for 3 mins by an Epoch Microplate Spectrophotometer (BioTek). A rate constant for the dissolution was calculated from the exponential decay fit of the recorded data.

[6] = Aqueous formulations of Compound 1 (water, PBS, saline), concentration by HPLC; assay type: physicochemical; details: for Calculated concentration by HPLC: 50% w/v in 100 mM PBS pH 7.4; for Calculated Conc.: tap water, target conc. 400 mg/ml; for 400 mg Compound in 0.7 ml Water, Measured Conc.: 400 mg in 0.7 ml
Description: Formulation Protocol • 1. Weigh out the required amount of Compound 1 then add the required amount of excipient (0.9% w/v saline, 100 mM PBS pH 7.4, water) to the solid Compound 1 to give the required mg/ml concentration of Compound 1. For example, for a 400 mg/ml formulation of Compound 1 in water, weigh out 400 mg of Compound 1 and add 0.7 ml of water. • 2. Sonicate the solution for 10 mins and then shake for 20 mins to ensure that Compound 1 is fully dissolved. • 3. The solution can be centrifuged (13000 rpm, 10 mins) to remove any particulates if required. • 4. The solution can be sterile filtered if required.
˜500 mg of compound was weighed into a vial, ˜500 μl 100 mM PBS pH 7.4 added and the vial was sonicated for 10 mins then shaken for 20 mins. A sample was then removed, diluted 1/2000 and the concentration calculated by HPLC analysis.
Compound 1 batch 3 was heated in an oven to 60° C. for 20 mins, at which point it became a translucent pale-yellow liquid. 100 mM PBS pH 7.4 (20% v/v) was added and the solution was mixed for 20 mins on a shaker. […] The solution was placed at 4° C. for 72 hours.
Method: • 1. Saline (0.9% w/v) was added to Compound 1 batch 11 in different amounts then sonicated for 10 mins—the samples remained slightly cloudy • 2. The samples were shaken for 30 mins at which point the solutions became translucent • 3. The solutions were diluted for HPLC analysis

Papp A→B at 1 h, 0.01 mM [2]: 0.192 ×10⁻⁶ cm/s
SMILES: CCN(CC)C(=O)[C@H](CSC(=O)CCC(=O)OC)NC(C)=O [B]

concentration reached ([3]; HPLC-grade water, added to 30 mg/mL, sonicated 10 minutes, shaken 30 minutes): 17000 µg/mL | concentration reached ([3]; HPLC-grade water, added to 52 mg/mL, sonicated 20 minutes, shaken 1 hour): 52000 µg/mL | concentration reached ([3]; HPLC-grade water, added to 2000 mg/mL, sonicated 20 minutes, shaken 1.5 hours): 850000 µg/mL | solubility at 1.5 h ([3]; HPLC-grade water, water, thermodynamic from solid, more crystalline Compound 1, read-out: water solubility): ≥ 850 mg/mL
SMILES: COC(=O)CCC(=O)SCCNC(C)=O [Batch 2, Methyl 3-[(2-acetylaminoethylthio)carbonyl]propionate]

Calculated Conc. ([4]; HPLC grade water, day 0): 1.02 mg/mL | Purity ([4]; HPLC grade water, day 0): 99.0% | Calculated Conc. ([4]; HPLC grade water, day 3): 1.04 mg/mL | Purity ([4]; HPLC grade water, day 3): 98.8% | Calculated Conc. ([4]; HPLC grade water, day 5): 1.03 mg/mL | Purity ([4]; HPLC grade water, day 5): 99.0% | Calculated Conc. ([4]; HPLC grade water, day 6): 1.01 mg/mL | Purity ([4]; HPLC grade water, day 6): 99.0% | Calculated Conc. ([4]; tap water, day 0): 1.06 mg/mL | Purity ([4]; tap water, day 0): 98.5% | Calculated Conc. ([4]; tap water, day 3): 0.98 mg/mL | Purity ([4]; tap water, day 3): 95.7% | Calculated Conc. ([4]; tap water, day 5): 0.93 mg/mL | Purity ([4]; tap water, day 5): 94.4% | Calculated Conc. ([4]; tap water, day 6): 0.89 mg/mL | Purity ([4]; tap water, day 6): 93.3% | Calculated Conc. ([4]; tap water, day 10): 0.83 mg/mL | Purity ([4]; tap water, day 10): 93.0% | Rate constants, k [5]: 0.014 s⁻¹ | solubility at 30 min ([3]; PBS or water, water, thermodynamic from solid, PBS or water, added to 258 mg/mL, sonicated 10 minutes, shaken 30 minutes, read-out: concentration reached): ≥ 258 mg/mL | Calculated concentration by HPLC [6]: 535 mg/mL | appearance of liquid formulation ([6]; batch 3 melted at 60° C., 100 mM PBS pH 7.4 (20% v/v) added, 72 hours at 4° C.): remained a translucent liquid | Calculated Conc. [6]: 381 mg/mL | 400 mg Compound in 0.7 ml Water, Measured Conc. [6]: 381 mg/mL
SMILES: COC(=O)CCC(=O)SCCNC(C)=O [Batch 3, Methyl 3-[(2-acetylaminoethylthio)carbonyl]propionate]

Calculated concentration by HPLC [6]: 526 mg/mL
SMILES: COC(=O)CCC(=O)SCCNC(C)=O [Batch 4, Methyl 3-[(2-acetylaminoethylthio)carbonyl]propionate]

Calculated concentration by HPLC [6]: 543 mg/mL
SMILES: COC(=O)CCC(=O)SCCNC(C)=O [Batch 6, Methyl 3-[(2-acetylaminoethylthio)carbonyl]propionate]

Rate constants, k [5]: 0.011 s⁻¹ | Calculated Conc. [6]: 366 mg/mL | 400 mg Compound in 0.7 ml Water, Measured Conc. [6]: 366 mg/mL
SMILES: COC(=O)CCC(=O)SCCNC(C)=O [Batch 14, Methyl 3-[(2-acetylaminoethylthio)carbonyl]propionate]

Papp A→B at 1 h, 0.01 mM [2]: 0.262 ×10⁻⁶ cm/s
SMILES: O=C1CNC(=O)[C@H](CSC(=O)CCC(=O)SC[C@@H]2NC(=O)CNC2=O)N1 [HI]

Papp A→B at 1 h, 0.01 mM [2]: 0.135 ×10⁻⁶ cm/s
SMILES: CC(=O)NCCSC(=O)CCC(=O)OC(C)C [J]

The remaining lines, values behind:

SMILES: CC(OC(=O)CCC(=O)O)OC(=O)CCC(=O)O [A, reference compound]
solubility [1]: 52 µM (≈ 13.6 µg/mL)

SMILES: CCN(CC)C(=O)[C@H](CSC(=O)CCC(=O)OC(C)C)NC(C)=O [A]
Papp A→B at 1 h, 0.01 mM [2]: 0.313 ×10⁻⁶ cm/s

SMILES: COC(=O)CCC(=O)SCCNC(C)=O [Batch 5, Methyl 3-[(2-acetylaminoethylthio)carbonyl]propionate]
Calculated concentration by HPLC [6]: 531 mg/mL

SMILES: COC(=O)CCC(=O)SCCNC(C)=O [Batch 12, Methyl 3-[(2-acetylaminoethylthio)carbonyl]propionate]
Rate constants, k [5]: 0.022 s⁻¹ | Calculated Conc. [6]: 378 mg/mL | 400 mg Compound in 0.7 ml Water, Measured Conc. [6]: 378 mg/mL

SMILES: COC(=O)CCC(=O)SCCNC(C)=O [Batch 13, Methyl 3-[(2-acetylaminoethylthio)carbonyl]propionate]
Rate constants, k [5]: 0.013 s⁻¹ | Calculated Conc. [6]: 395 mg/mL | 400 mg Compound in 0.7 ml Water, Measured Conc. [6]: 395 mg/mL

SMILES: COC(=O)CCC(=O)SCCNC(C)=O [Batch 15, Methyl 3-[(2-acetylaminoethylthio)carbonyl]propionate]
Rate constants, k [5]: 0.074 s⁻¹ | 400 mg Compound in 0.7 ml Water, Measured Conc. [6]: 414 mg/mL

SMILES: COC(=O)CCC(=O)SCCNC(C)=O [Batch 16, Methyl 3-[(2-acetylaminoethylthio)carbonyl]propionate]
Rate constants, k [5]: 0.055 s⁻¹ | 400 mg Compound in 0.7 ml Water, Measured Conc. [6]: 435 mg/mL

SMILES: COC(=O)CCC(=O)SCCNC(C)=O [Batch 17, Methyl 3-[(2-acetylaminoethylthio)carbonyl]propionate]
Rate constants, k [5]: 0.111 s⁻¹

SMILES: CCOC(=O)CCC(=O)SCCNC(C)=O [C]
Papp A→B at 1 h, 0.01 mM [2]: 0.128 ×10⁻⁶ cm/s

SMILES: CC(=O)NCC(C)SC(=O)CCC(=O)OC(C)C (stereo not shown) [D]
Papp A→B at 1 h, 0.01 mM [2]: 0.142 ×10⁻⁶ cm/s

SMILES: CC(=O)NCCSC(=O)CCC(=O)OCC(C)(C)C [E]
Papp A→B at 1 h, 0.01 mM [2]: < 0.021 ×10⁻⁶ cm/s

SMILES: COC(=O)CCC(=O)SC(C)CNC(C)=O (stereo not shown) [F]
Papp A→B at 1 h, 0.01 mM [2]: 0.145 ×10⁻⁶ cm/s

SMILES: CCOC(=O)CCC(=O)SC(C)CNC(C)=O (stereo not shown) [G]
Papp A→B at 1 h, 0.01 mM [2]: 0.087 ×10⁻⁶ cm/s

SMILES: CCOC(=O)CCC(=O)SC[C@H](NC(C)=O)C(=O)N(CC)CC [K]
Papp A→B at 1 h, 0.01 mM [2]: 0.168 ×10⁻⁶ cm/s

SMILES: CC(=O)NCC(C)SC(=O)CCC(=O)OCC(C)(C)C (stereo not shown) [L]
Papp A→B at 1 h, 0.01 mM [2]: 0.016 ×10⁻⁶ cm/s

SMILES: CCNC(=O)[C@H](CSC(=O)CCC(=O)SC[C@H](NC(=O)CC)C(=O)N(CC)CC)NC(=O)CC [M]
Papp A→B at 1 h, 0.01 mM [2]: 0.097 ×10⁻⁶ cm/s
